According to ChEMBL document CHEMBL5241111, “Non-steroidal anti-inflammatory drugs: recent advances in the use of synthetic COX-2 inhibitors” (RSC Med Chem, 2022):

Assays:
Dihydrofolate reductase = target: T1, Dihydrofolate reductase (Homo sapiens, UniProt P00374); assay: Inhibition of DHFR (unknown origin)
T1 sequence (P00374 whole entry): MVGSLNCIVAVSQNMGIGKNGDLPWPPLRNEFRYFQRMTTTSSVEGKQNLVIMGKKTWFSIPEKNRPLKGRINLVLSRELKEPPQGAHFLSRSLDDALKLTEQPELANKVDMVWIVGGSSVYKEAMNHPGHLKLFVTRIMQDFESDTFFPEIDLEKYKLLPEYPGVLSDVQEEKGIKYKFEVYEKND

[1] = target: COX-1/COX-2 (Homo sapiens) (UniProt P35354+P23219); assay: Selectivity index, ratio of IC50 for inhibition of COX-1 (unknown origin) to IC50 for inhibition of COX-2 (unknown origin); assay type: protein assay
[2] = target: T2, Prostaglandin G/H synthase 2 (Homo sapiens, UniProt P35354); assay: Inhibition of human COX-2 using arachidonic acid as substrate incubated for 30 secs by ELISA
T2 sequence (P35354 whole entry): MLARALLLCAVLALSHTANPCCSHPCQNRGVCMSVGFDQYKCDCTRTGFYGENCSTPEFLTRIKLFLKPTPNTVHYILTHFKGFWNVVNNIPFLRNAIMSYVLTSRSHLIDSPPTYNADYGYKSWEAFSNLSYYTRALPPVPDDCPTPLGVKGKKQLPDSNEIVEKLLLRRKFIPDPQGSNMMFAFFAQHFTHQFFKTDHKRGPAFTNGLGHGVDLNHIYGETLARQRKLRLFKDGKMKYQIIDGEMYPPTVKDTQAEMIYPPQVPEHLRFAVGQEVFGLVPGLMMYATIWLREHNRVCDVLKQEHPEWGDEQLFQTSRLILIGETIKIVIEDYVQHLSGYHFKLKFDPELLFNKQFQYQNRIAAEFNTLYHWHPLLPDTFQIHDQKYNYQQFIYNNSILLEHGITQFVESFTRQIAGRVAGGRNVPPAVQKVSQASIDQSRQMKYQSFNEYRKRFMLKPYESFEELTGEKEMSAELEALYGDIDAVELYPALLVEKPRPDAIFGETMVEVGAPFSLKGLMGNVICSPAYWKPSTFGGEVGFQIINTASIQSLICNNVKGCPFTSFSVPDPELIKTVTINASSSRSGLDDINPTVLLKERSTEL

[3] = Inhibition of soybean 5-LOX using linoleic acid as substrate preincubated for 5 mins followed by substrate addition and measured after 3 mins; design: species or system Glycine max
Alpha-glucosidase = Alpha-glucosidase (Saccharomyces cerevisiae S288c, UniProt P53341+P38158+P07265); assay: Inhibition of Saccharomyces cerevisiae alpha-glucosidase using PNPG as substrate preincubated for 10 mins followed by substrate addition by spectrophotometric method; assay type: protein assay
[4] = target: T2, Prostaglandin G/H synthase 2; assay: Inhibition of human COX-2 using arachidonic acid as substrate preincubated for 10 mins followed by substrate addition and measured after 30 secs by ELISA
[5] = target: T3, Polyunsaturated fatty acid 5-lipoxygenase (Homo sapiens, UniProt P09917); assay: Inhibition of 5-LOX (unknown origin)
T3 sequence (P09917 whole entry): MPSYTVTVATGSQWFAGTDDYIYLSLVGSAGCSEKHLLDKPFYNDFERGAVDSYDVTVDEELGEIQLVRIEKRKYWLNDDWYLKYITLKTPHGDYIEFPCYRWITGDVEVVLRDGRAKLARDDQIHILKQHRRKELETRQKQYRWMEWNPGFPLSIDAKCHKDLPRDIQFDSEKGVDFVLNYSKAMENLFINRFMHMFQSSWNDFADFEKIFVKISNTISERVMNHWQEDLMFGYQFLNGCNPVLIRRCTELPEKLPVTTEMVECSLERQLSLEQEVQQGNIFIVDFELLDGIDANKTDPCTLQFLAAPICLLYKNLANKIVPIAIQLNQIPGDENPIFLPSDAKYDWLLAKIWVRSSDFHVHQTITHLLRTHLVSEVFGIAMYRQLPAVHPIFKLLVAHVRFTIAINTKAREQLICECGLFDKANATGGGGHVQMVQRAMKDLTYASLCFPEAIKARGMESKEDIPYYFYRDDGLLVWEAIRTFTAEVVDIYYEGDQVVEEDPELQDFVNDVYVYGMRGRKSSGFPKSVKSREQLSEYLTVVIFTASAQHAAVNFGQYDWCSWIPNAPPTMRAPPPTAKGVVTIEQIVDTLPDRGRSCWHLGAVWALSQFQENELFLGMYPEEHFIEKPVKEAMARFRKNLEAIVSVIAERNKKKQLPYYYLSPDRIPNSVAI

[6] = target: T2, Prostaglandin G/H synthase 2; assay: Inhibition of human recombinant COX-2 using arachidonic acid as substrate preincubated for 5 mins followed by substrate addition and measured after 10 mins by microplate reader analysis
[7] = target: T2, Prostaglandin G/H synthase 2; assay: Inhibition of COX-2 (unknown origin)
[8] = target: T4, Prostaglandin G/H synthase 2 (Homo sapiens) (UniProt P35354); conditions: dose 2-10 nM, time 1.0 min
T4 sequence (whole entry): T2 sequence (P35354 whole entry)

COc1cc(/C=C2\N=C(c3ccccc3)N(c3ccc(S(N)(=O)=O)cc3)C2=O)ccc1OC(=O)c1ccccc1
IC50 (Dihydrofolate reductase): 280 nM

NS(=O)(=O)c1ccc(-n2cc(-c3ccc(C(F)(F)F)cc3)nn2)cc1
Ratio IC50 [1]: 0.008
IC50 [2]: 3320 nM

COC(=O)/C(=C/c1ccccc1)NC(=O)[C@H](Cc1ccc(O)cc1)NC(=O)[C@@H](C)c1ccc2cc(OC)ccc2c1
IC50 [3]: 48900 nM

CC(=O)Oc1cc2oc(-c3cccc(Cl)c3)cc2cc1-c1c[se]nn1
IC50 (Alpha-glucosidase): 1030 nM

CS(=O)(=O)c1ccc(-c2nn(-c3ccc(S(N)(=O)=O)cc3)cc2C=O)cc1
Ratio IC50 [1]: 0.008
IC50 [2]: 17 nM

COc1ccc2cc([C@H](C)C(=O)O)ccc2c1 [NAPROXEN]
IC50 [3]: 22000 nM

O=c1[nH]n2c(=O)c3ccccc3nc2/c1=C/c1ccc(F)cc1
IC50 [4]: 47 nM
IC50 [5]: 600 nM

CC1=NN(c2ccc(S(N)(=O)=O)cc2)C(=O)/C1=C\c1c[nH]c2ccccc12
IC50 [6]: 150 nM

CC1=NN(c2ccc(S(N)(=O)=O)cc2)C(=O)/C1=C\c1cccc(OCc2ccccc2)c1
IC50 [6]: 150 nM

CC(C)=CC[C@H]1C[C@@H]2C[C@@H]3[C@@H](C[C@]4(C)C(C)(C)OC[C@]34C)C(=O)[C@](C(=O)c3ccccc3)(C1=O)C2(C)C
IC50 [7]: 5270 nM

COc1ccc2cc([C@H](C)C(=O)N[C@@H](Cc3ccc(O)cc3)C(=O)N/C(=C\c3ccccc3)C(=O)O)ccc2c1
IC50 [3]: 48900 nM

CC1=NN(c2ccc(S(N)(=O)=O)cc2)C(=O)/C1=C\c1ccc(F)cc1C
IC50 [6]: 150 nM

Cc1c(C(=O)NNC(=S)Nc2ccccc2)nnn1-c1ccc(S(N)(=O)=O)cc1
Ratio IC50 [1]: 1.95
IC50 [7]: 2610 nM

CCC(C)C(=O)[C@H]1C(=O)[C@@]2(CC=C(C)C)C[C@H](C[C@H]3[C@@H](C[C@H](C(C)(C)O)C3(C)C)C2=O)C1(C)C (stereo partly specified)
IC50 [7]: 8320 nM

NS(=O)(=O)c1ccc(C(=O)OCCn2cc(-c3ccc(C(F)(F)F)cc3)nn2)cc1
Ratio IC50 [1]: 0.008
IC50 [2]: 131 nM

C/C=C(\NC(=O)[C@H](Cc1c[nH]c2ccccc12)NC(=O)[C@@H](C)c1ccc2cc(OC)ccc2c1)C(=O)OC
IC50 [3]: 48900 nM

COc1ccc(/C=c2\c(=O)[nH]n3c(=O)c4ccccc4nc23)cc1OC
IC50 [4]: 47 nM
IC50 [5]: 600 nM

COc1cc(/C=C2\C(=O)N(c3ccc(S(N)(=O)=O)cc3)N=C2C)ccc1OCC#N
IC50 [6]: 150 nM

O=c1[nH]n2c(=O)c3ccccc3nc2/c1=C/c1ccc(Cl)cc1
IC50 [4]: 47 nM
IC50 [5]: 600 nM

O=c1[nH]n2c(=O)c3ccccc3nc2/c1=C/c1ccc(Br)cc1
IC50 [4]: 47 nM
IC50 [5]: 600 nM

CC1=NN(c2ccc(S(N)(=O)=O)cc2)C(=O)/C1=C\c1sccc1C
IC50 [6]: 150 nM

COc1ccc2cc([C@H](C)C(=O)N[C@@H](CCSC)C(=O)N/C(=C\c3ccccc3)C(=O)O)ccc2c1
IC50 [3]: 48900 nM

COc1cc(/C=c2\c(=O)[nH]n3c(=O)c4ccccc4nc23)cc(OC)c1OC
IC50 [5]: 600 nM

O=c1[nH]n2c(=O)c3ccccc3nc2/c1=C/c1cccc(F)c1
IC50 [4]: 47 nM
IC50 [5]: 600 nM

COc1ccc(/C=c2\c(=O)[nH]n3c(=O)c4ccccc4nc23)cc1
IC50 [4]: 47 nM
IC50 [5]: 600 nM

COc1ccc2cc([C@H](C)C(=O)N[C@@H](C)C(=O)N/C(=C\c3ccccc3)C(=O)O)ccc2c1
IC50 [3]: 48900 nM

O=Cc1cn(-c2ccc(Br)cc2)nc1-c1ccc(Br)cc1
Ratio IC50 [1]: 0.008
IC50 [2]: 17 nM

Cc1c(C2=NNC(c3ccccc3)C2)nnn1-c1ccc(S(N)(=O)=O)cc1 (stereo unspecified)
Ratio IC50 [1]: 1.95
IC50 [7]: 2610 nM

NS(=O)(=O)c1ccc(-c2nn(-c3ccc([N+](=O)[O-])cc3)cc2C=O)cc1
Ratio IC50 [1]: 0.008
IC50 [2]: 17 nM

COC(=O)/C(=C/c1ccccc1)NC(=O)[C@H](CC(=O)O)NC(=O)[C@@H](C)c1ccc2cc(OC)ccc2c1
IC50 [3]: 48900 nM

CS(=O)(=O)c1ccc(-n2cc(-c3ccc(C(F)(F)F)cc3)nn2)cc1
Ratio IC50 [1]: 0.008
IC50 [2]: 226 nM

COc1ccccc1/C=c1\c(=O)[nH]n2c(=O)c3ccccc3nc12
IC50 [4]: 47 nM
IC50 [5]: 600 nM

Cc1c(C(=O)NN)nnn1-c1ccc(S(N)(=O)=O)cc1
Ratio IC50 [1]: 1.95
IC50 [7]: 2920 nM

C/C(=N\NC(=O)c1nnn(-c2ccc(S(N)(=O)=O)cc2)c1C)c1cc2ccccc2o1
Ratio IC50 [1]: 1.95
IC50 [7]: 2610 nM

CC(=O)Oc1cc2oc(-c3ccc(C)cc3)cc2cc1-c1c[se]nn1
IC50 (Alpha-glucosidase): 1030 nM

O=c1[nH]n2c(=O)c3ccccc3nc2/c1=C/c1ccccc1
IC50 [4]: 47 nM
IC50 [5]: 600 nM

COc1ccc(-c2cc3cc(-c4c[se]nn4)c(OC(C)=O)cc3o2)cc1
IC50 (Alpha-glucosidase): 1030 nM

O=c1[nH]n2c(=O)c3ccccc3nc2/c1=C/c1ccccc1F
IC50 [4]: 47 nM
IC50 [5]: 600 nM

CS(=O)(=O)c1ccc(C(=O)OCCn2cc(-c3ccc(C(F)(F)F)cc3)nn2)cc1
Ratio IC50 [1]: 0.008
IC50 [2]: 2 nM

CC(=O)Oc1cc2oc(-c3cccc(F)c3)cc2cc1-c1c[se]nn1
IC50 (Alpha-glucosidase): 1030 nM

Cc1c(C(=O)/C=C/c2ccccc2)nnn1-c1ccc(S(N)(=O)=O)cc1
Ratio IC50 [1]: 1.95
IC50 [7]: 2610 nM

CN1C/C(=C\c2ccc([N+](=O)[O-])s2)C2=NN(c3ccccc3)C(c3ccc([N+](=O)[O-])s3)C2C1 (stereo unspecified)
inhibition [8]: < 98%

COc1ccc2cc([C@H](C)C(=O)N[C@@H](CCCCN)C(=O)N/C(=C\c3ccccc3)C(=O)O)ccc2c1
IC50 [3]: 48900 nM

CCOc1cc(/C=C2\C(=O)N(c3ccc(S(N)(=O)=O)cc3)N=C2C)ccc1O
IC50 [6]: 150 nM

CC(=O)Oc1cc2oc(-c3ccc(F)cc3)cc2cc1-c1c[se]nn1
IC50 (Alpha-glucosidase): 1030 nM

C/C(=N\NC(=O)c1nnn(-c2ccc(S(N)(=O)=O)cc2)c1C)c1nnn(-c2ccc(S(N)(=O)=O)cc2)c1C
Ratio IC50 [1]: 1.95
IC50 [7]: 2610 nM

COc1ccc2cc([C@H](C)C(=O)N[C@@H](Cc3c[nH]c4ccccc34)C(=O)N/C(=C\c3ccccc3)C(=O)O)ccc2c1
IC50 [3]: 48900 nM

CC(=O)N1N=C(c2nnn(-c3ccc(S(N)(=O)=O)cc3)c2C)CC1c1ccccc1 (stereo unspecified)
Ratio IC50 [1]: 1.95
IC50 [7]: 2610 nM

CCC(=O)c1nnn(-c2ccc(S(N)(=O)=O)cc2)c1C
Ratio IC50 [1]: 1.95
IC50 [7]: 2610 nM

CC(=O)Oc1cc2oc(-c3ccccc3)cc2cc1-c1c[se]nn1
IC50 (Alpha-glucosidase): 1030 nM

CC(=O)c1nnn(-c2ccc(S(N)(=O)=O)cc2)c1C
Ratio IC50 [1]: 1.95
IC50 [7]: 2610 nM
